In patent US10570164B2, “Steviol glycosides, their compositions and their purification” (The Coca-Cola Company, priority 2013, dated 2020):

Experiments:
[1] = system: panelists; experiment: Taste evaluation: overall sweetness of 30 ppm solutions against sucrose controls (sweetness recognition threshold); assay type: in vivo, human; conditions: for sweetness recognition threshold: lowest concentration perceivable by the human sense of taste; for sucrose equivalence / isosweetness of a solution of the compound alone: solution containing 30 ppm compound, no additional sweetener, isosweet sucrose solution
Protocol: (§1) Solutions were made by dissolving all ingredients in treated water. For citric acid buffer, citric acid and potassium citrate were added in a sufficient amount to bring the pH to 3.2. Finished products were filled in 300 ml glass bottles and stored in the refrigerator and tasted the following day.
(§2) Beverages in citric acid/sodium citrate buffer were kept at 4° C. in the refrigerator and tasted the following day. Four panelists evaluated the beverages. Bottles were removed from the refrigerator and about 20 ml of beverage poured in 2 oz. plastic cups. Panelists were instructed not to swallow the samples and additional cups were provided to spit the sample in. Mineral water was given for palate rinsing before tasting and between tasting different samples.
To evaluate 30 ppm of rebaudioside N and rebaudioside O for overall sweetness, panelists were provided solutions of 1%, 1.5%, and 2% sucrose in citric acid/sodium citrate buffer as controls. All panelists determined the overall sweetness of 30 ppm of rebaudioside N and rebaudioside O solutions in citric acid/sodium citrate buffer to fall between 1% and 1.5% sucrose controls. Accordingly, 30 ppm was determined to be the sweetness recognition threshold concentration for both compounds.

[2] = system: panelists; experiment: Taste evaluation: sweetness enhancement of 30 ppm added to 8% sucrose beverage against sucrose controls; assay type: in vivo, human; conditions: for sweetness enhancement: 30 ppm compound added to beverage containing 8% sucrose, citric acid/sodium citrate buffer; for increase in isosweetness provided by the compound: 30 ppm compound in beverage with 8% (w/v) sucrose; for isosweetness of beverage containing sucrose and compound: beverage with 8% (w/v) sucrose and 30 ppm compound, isosweet sucrose solution
Protocol: as §1, §2
Sweetness enhancement of rebaudioside N and rebaudioside O was evaluated by adding 30 ppm to a solution of 8% sucrose in citric acid/sodium citrate buffer (pH 3.2). The new solutions were then evaluated for their overall sweetness against three controls of 8%, 9%, and 10% sucrose in citric acid/sodium citrate buffer solutions (pH 3.2).

Row | Compound | sweetness recognition threshold [1] | sucrose equivalence / isosweetness of a solution of the compound alone [1] | sweetness enhancement [2] | increase in isosweetness provided by the compound [2] | isosweetness of beverage containing sucrose and compound [2] | overall sweetness of beverage against sucrose controls ([2]; 30 ppm compound and 8% sucrose in citric acid/sodium citrate buffer (pH 3.2), 8%, 9%, 10% sucrose controls)
1 | C=C1C[C@@]23CCC4[C@](C)(C(=O)OC5OC(CO)C(O)C(OC6OC(CO)C(O)C(O)C6O)C5OC5OC(C)C(O)C(O)C5O)CCC[C@@]4(C)[C@@H]2CC[C@]1(OC1OC(CO)C(O)C(OC2OC(CO)C(O)C(O)C2O)C1OC1OC(CO)C(O)C(O)C1O)C3 (stereo partly drawn) [Compound (2f), 13-[(2-O-β-D-glucopyranosyl-3-O-β-D-glucopyranosyl-β-D-glucopyranosyl)oxy]ent-kaur-16-en-19-oic acid-[(2-O-α-D-rhamnopyranosyl-3-O-β-D-glucopyranosyl-β-D-glucopyranosyl)ester]] | about 30 ppm | 1.0-1.5 % (w/v) | 2.5-3.0% | 2.5-3.0 % (w/v) | 10.5-11.0 % (w/v) | 
2 | C=C1C[C@@]23CCC4[C@](C)(C(=O)OC5OC(CO)C(O)C(OC6OC(CO)C(O)C(O)C6O)C5OC5OC(C)C(O)C(OC6OC(CO)C(O)C(O)C6O)C5O)CCC[C@@]4(C)[C@@H]2CC[C@]1(OC1OC(CO)C(O)C(OC2OC(CO)C(O)C(O)C2O)C1OC1OC(CO)C(O)C(O)C1O)C3 (stereo partly drawn) [Compound (2g), 13-[(2-O-β-D-glucopyranosyl-3-O-β-D-glucopyranosyl-β-D-glucopyranosyl)oxy]ent-kaur-16-en-19-oic acid-[(2-O-(3-O-β-D-glucopyranosyl-α-D-rhamnopyranosyl)-3-O-β-D-glucopyranosyl-β-D-glucopyranosyl)ester]] | about 30 ppm | 1.0-1.5 % (w/v) | about 2.0% | 2.0 % (w/v) | 10.0 % (w/v) | ~10%
